Here are results for 22 compounds from US9957263B2, “Bromodomain inhibitors” (AbbVie Inc., priority 2013, dated 2018).

One experiment has as its target BRD4 (BDI_K57-E168) (Homo sapiens (Human), UniProt O60885). The experiment in a line: TR-FRET bromodomain binding assay, BRD4 first bromodomain. Conditions: His-tagged BD1, Alexa647-labeled probe 100 nM. In a few lines: (§1)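 His-tagged bromodomain (8 nM) was incubated 1 h at room temperature with Eu-anti-His antibody (1 nM), Alexa647-labeled BET-inhibitor probe (100 nM for BDI, 30 nM for BDII) and compound (50 μM-0.85 nM, 2% DMSO) in pH 6.0 phosphate buffer. TR-FRET ratio read; IC50 from 4-parameter fit converted to Ki using probe Kd.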

In a further experiment the target is BRD4 (BDII_E352-M457) (Homo sapiens (Human), UniProt O60885). The experiment is described as follows: TR-FRET bromodomain binding assay, BRD4 second bromodomain. The settings on record: His-tagged BD2, Alexa647-labeled probe 30 nM. In a few lines:
as §1
Background: Time-resolved FRET reads energy transfer from a long-lived donor to a nearby acceptor.

Bounds are passed on as bounds.

In the case of `Cn1cc(-c2cc(S(C)(=O)=O)ccc2N[C@H]2CC[C@H](NCc3ccc4ccccc4c3)CC2)c2cc[nH]c2c1=O` [Example 110, 6-methyl-4-[5-(methylsulfonyl)-2-({trans-4-[(naphthalen-2-ylmethyl)amino]cyclohexyl}amino)phenyl]-1,6-dihydro-7H-pyrrolo[2,3-c]pyridin-7-one], the Ki at BRD4 (BDI_K57-E168) was found to be 1.1 nM; on BRD4 (BDII_E352-M457), 2.2 nM.

In the case of `COCCN[C@H]1CC[C@H](Nc2ccc(S(C)(=O)=O)cc2-c2cn(C)c(=O)c3[nH]ccc23)CC1` [Example 111, 4-[2-({trans-4-[(2-methoxyethyl)amino]cyclohexyl}amino)-5-(methylsulfonyl)phenyl]-6-methyl-1,6-dihydro-7H-pyrrolo[2,3-c]pyridin-7-one], the Ki on BRD4 (BDI_K57-E168) amounted to 4.6 nM; on BRD4 (BDII_E352-M457), 12 nM.

Take `CSCCCN[C@H]1CC[C@H](Nc2ccc(S(C)(=O)=O)cc2-c2cn(C)c(=O)c3[nH]ccc23)CC1` [Example 112, 6-methyl-4-{2-[(trans-4-{[3-(methylsulfanyl)propyl]amino}cyclohexyl)amino]-5-(methylsulfonyl)phenyl}-1,6-dihydro-7H-pyrrolo[2,3-c]pyridin-7-one]: the figures for the inhibition constant Ki at BRD4 (BDI_K57-E168) and at BRD4 (BDII_E352-M457) were 5.4 nM and 10 nM, respectively.

With `Cn1cc(-c2cc(S(C)(=O)=O)ccc2N[C@H]2CC[C@H](NCc3ccc(Cl)cc3)CC2)c2cc[nH]c2c1=O` [Example 113, 4-[2-({trans-4-[(4-chlorobenzyl)amino]cyclohexyl}amino)-5-(methylsulfonyl)phenyl]-6-methyl-1,6-dihydro-7H-pyrrolo[2,3-c]pyridin-7-one], the Ki at BRD4 (BDI_K57-E168) was found to be 2.5 nM; on BRD4 (BDII_E352-M457), 7 nM.

In the case of `Cn1cc(-c2cc(S(C)(=O)=O)ccc2Oc2ccc(F)cc2F)c2cc(CN3CCN(c4nccs4)CC3)[nH]c2c1=O` [Example 114, 4-[2-(2,4-difluorophenoxy)-5-(methylsulfonyl)phenyl]-6-methyl-2-{[4-(1,3-thiazol-2-yl)piperazin-1-yl]methyl}-1,6-dihydro-7H-pyrrolo[2,3-c]pyridin-7-one], the Ki worked out at 6.93 nM on BRD4 (BDI_K57-E168) and 80.7 nM on BRD4 (BDII_E352-M457).

`Cn1cc(-c2cc(S(C)(=O)=O)ccc2Oc2ccc(F)cc2F)c2cc(CN3CCN(C4CC4)CC3)[nH]c2c1=O` [Example 115, 2-[(4-cyclopropylpiperazin-1-yl)methyl]-4-[2-(2,4-difluorophenoxy)-5-(methylsulfonyl)phenyl]-6-methyl-1,6-dihydro-7H-pyrrolo[2,3-c]pyridin-7-one]: the inhibition constant (Ki) at BRD4 (BDI_K57-E168) is 5.22 nM; on BRD4 (BDII_E352-M457), 120 nM.

Regarding `Cn1cc(-c2cc(S(C)(=O)=O)ccc2Oc2ccc(F)cc2F)c2cc(CN3CCN(C4CCOCC4)CC3)[nH]c2c1=O` [Example 116, 4-[2-(2,4-difluorophenoxy)-5-(methylsulfonyl)phenyl]-6-methyl-2-{[4-(tetrahydro-2H-pyran-4-yl)piperazin-1-yl]methyl}-1,6-dihydro-7H-pyrrolo[2,3-c]pyridin-7-one], the Ki is 3.33 nM on BRD4 (BDI_K57-E168) and 98.4 nM at BRD4 (BDII_E352-M457).

Turning to `CCS(=O)(=O)c1ccc(Oc2ccc(F)cc2F)c(-c2cn(C)c(=O)c3[nH]c(-c4ccnn4-c4ccccc4)cc23)c1` [Example 117, 4-[2-(2,4-difluorophenoxy)-5-(ethylsulfonyl)phenyl]-6-methyl-2-(1-phenyl-1H-pyrazol-5-yl)-1,6-dihydro-7H-pyrrolo[2,3-c]pyridin-7-one], the inhibitory constant (Ki) came to 6.09 nM at BRD4 (BDI_K57-E168) and 3.39 nM at BRD4 (BDII_E352-M457).

Turning to `CCS(=O)(=O)c1ccc(Oc2ccc(F)cc2F)c(-c2cn(C)c(=O)c3[nH]c(-c4cccnc4N4CCOCC4)cc23)c1` [Example 118, 4-[2-(2,4-difluorophenoxy)-5-(ethylsulfonyl)phenyl]-6-methyl-2-[2-(morpholin-4-yl)pyridin-3-yl]-1,6-dihydro-7H-pyrrolo[2,3-c]pyridin-7-one], the Ki on BRD4 (BDI_K57-E168) stood at 99.2 nM; on BRD4 (BDII_E352-M457), 367 nM.

As to `CCNC(=O)c1cc2c(-c3cc(S(=O)(=O)CC)ccc3Oc3c(C)cccc3NCC3CC3)cn(C)c(=O)c2[nH]1` [Example 119, 4-[2-{2-[(cyclopropylmethyl)amino]-6-methylphenoxy}-5-(ethylsulfonyl)phenyl]-N-ethyl-6-methyl-7-oxo-6,7-dihydro-1H-pyrrolo[2,3-c]pyridine-2-carboxamide], the figures for the inhibition constant Ki on BRD4 (BDI_K57-E168) and on BRD4 (BDII_E352-M457) were 1510 nM and 6.69 nM, respectively.

On to `CCS(=O)(=O)c1ccc(Oc2c(C)cccc2Cl)c(-c2cn(C)c(=O)c3[nH]c(C(=O)NCC#N)cc23)c1` [Example 120, 4-[2-(2-chloro-6-methylphenoxy)-5-(ethylsulfonyl)phenyl]-N-(cyanomethyl)-6-methyl-7-oxo-6,7-dihydro-1H-pyrrolo[2,3-c]pyridine-2-carboxamide], for which the inhibitory constant (Ki) is above 238 nM at BRD4 (BDI_K57-E168) and 158 nM on BRD4 (BDII_E352-M457).

Turning to `CCS(=O)(=O)c1ccc(Oc2c(C)cccc2Cl)c(-c2cn(C)c(=O)c3[nH]c(C(=O)NC(C)C(=O)NC)cc23)c1` (centres unmarked) [Example 121, 4-[2-(2-chloro-6-methylphenoxy)-5-(ethylsulfonyl)phenyl]-6-methyl-N-[1-(methylamino)-1-oxopropan-2-yl]-7-oxo-6,7-dihydro-1H-pyrrolo[2,3-c]pyridine-2-carboxamide], the inhibition constant (Ki) came to 62.1 nM at BRD4 (BDI_K57-E168) and 7.2 nM at BRD4 (BDII_E352-M457).

With `CCS(=O)(=O)c1ccc(Oc2c(C)cccc2Cl)c(-c2cn(C)c(=O)c3[nH]c(C(=O)NCC(=O)N4CCCCC4)cc23)c1` [Example 122, 4-[2-(2-chloro-6-methylphenoxy)-5-(ethylsulfonyl)phenyl]-6-methyl-7-oxo-N-[2-oxo-2-(piperidin-1-yl)ethyl]-6,7-dihydro-1H-pyrrolo[2,3-c]pyridine-2-carboxamide], the inhibition constant (Ki) is 39.1 nM at BRD4 (BDI_K57-E168) and 7.58 nM on BRD4 (BDII_E352-M457).

In the case of `CCS(=O)(=O)c1ccc(Oc2c(C)cccc2Cl)c(-c2cn(C)c(=O)c3[nH]c(C(=O)NCCC#N)cc23)c1` [Example 123, 4-[2-(2-chloro-6-methylphenoxy)-5-(ethylsulfonyl)phenyl]-N-(2-cyanoethyl)-6-methyl-7-oxo-6,7-dihydro-1H-pyrrolo[2,3-c]pyridine-2-carboxamide], the inhibition constant (Ki) on BRD4 (BDI_K57-E168) worked out at 39.9 nM; on BRD4 (BDII_E352-M457), 5.6 nM.

In the case of `CCS(=O)(=O)c1ccc(Oc2c(C)cccc2Cl)c(-c2cn(C)c(=O)c3[nH]c(C(=O)NCC(=O)NC)cc23)c1` [Example 124, 4-[2-(2-chloro-6-methylphenoxy)-5-(ethylsulfonyl)phenyl]-6-methyl-N-[2-(methylamino)-2-oxoethyl]-7-oxo-6,7-dihydro-1H-pyrrolo[2,3-c]pyridine-2-carboxamide], the inhibitory constant (Ki) at BRD4 (BDI_K57-E168) worked out at 88.3 nM; at BRD4 (BDII_E352-M457), 10.1 nM.

Regarding `CN1CCC(N2CCN(Cc3cc4c(-c5cc(S(C)(=O)=O)ccc5Oc5ccc(F)cc5F)cn(C)c(=O)c4[nH]3)CC2)CC1` [Example 125, 4-[2-(2,4-difluorophenoxy)-5-(methylsulfonyl)phenyl]-6-methyl-2-{[4-(1-methylpiperidin-4-yl)piperazin-1-yl]methyl}-1,6-dihydro-7H-pyrrolo[2,3-c]pyridin-7-one], the Ki on BRD4 (BDI_K57-E168) is 8.47 nM; on BRD4 (BDII_E352-M457) it was 189 nM.

On to `Cn1cc(-c2cc(S(C)(=O)=O)ccc2Oc2ccc(F)cc2F)c2cc(CN3CCCN(c4ccccn4)CC3)[nH]c2c1=O` [Example 126, 4-[2-(2,4-difluorophenoxy)-5-(methylsulfonyl)phenyl]-6-methyl-2-{[4-(pyridin-2-yl)-1,4-diazepan-1-yl]methyl}-1,6-dihydro-7H-pyrrolo[2,3-c]pyridin-7-one], for which the Ki stood at 54.5 nM on BRD4 (BDI_K57-E168) and 276 nM on BRD4 (BDII_E352-M457).

Consider `Cn1cc(-c2cc(S(C)(=O)=O)ccc2Oc2ccc(F)cc2F)c2cc(CN3CCOCC3c3ccco3)[nH]c2c1=O` (centres unmarked) [Example 127, 4-[2-(2,4-difluorophenoxy)-5-(methylsulfonyl)phenyl]-2-{[3-(furan-2-yl)morpholin-4-yl]methyl}-6-methyl-1,6-dihydro-7H-pyrrolo[2,3-c]pyridin-7-one], for which the figures for the Ki on BRD4 (BDI_K57-E168) and on BRD4 (BDII_E352-M457) were 15.8 nM and 93.8 nM, respectively.

As for `Cc1nnc(C)n1C1CCN(Cc2cc3c(-c4cc(S(C)(=O)=O)ccc4Oc4ccc(F)cc4F)cn(C)c(=O)c3[nH]2)CC1` [Example 128, 4-[2-(2,4-difluorophenoxy)-5-(methylsulfonyl)phenyl]-2-{[4-(3,5-dimethyl-4H-1,2,4-triazol-4-yl)piperidin-1-yl]methyl}-6-methyl-1,6-dihydro-7H-pyrrolo[2,3-c]pyridin-7-one], the Ki on BRD4 (BDI_K57-E168) turned out to be 47.8 nM; at BRD4 (BDII_E352-M457), 182 nM.

Regarding `Cc1cc(C)n(C2CN(Cc3cc4c(-c5cc(S(C)(=O)=O)ccc5Oc5ccc(F)cc5F)cn(C)c(=O)c4[nH]3)C2)n1` [Example 129, 4-[2-(2,4-difluorophenoxy)-5-(methylsulfonyl)phenyl]-2-{[3-(3,5-dimethyl-1H-pyrazol-1-yl)azetidin-1-yl]methyl}-6-methyl-1,6-dihydro-7H-pyrrolo[2,3-c]pyridin-7-one], the Ki amounted to 15.9 nM on BRD4 (BDI_K57-E168) and 87 nM at BRD4 (BDII_E352-M457).

On to `Cn1cc(-c2cc(S(C)(=O)=O)ccc2Oc2ccc(F)cc2F)c2cc(CN3CCC(N4CCOCC4)CC3)[nH]c2c1=O` [Example 130, 4-[2-(2,4-difluorophenoxy)-5-(methylsulfonyl)phenyl]-6-methyl-2-{[4-(morpholin-4-yl)piperidin-1-yl]methyl}-1,6-dihydro-7H-pyrrolo[2,3-c]pyridin-7-one], for which the Ki on BRD4 (BDI_K57-E168) is 10.1 nM; on BRD4 (BDII_E352-M457) it was 108 nM.

Regarding `Cc1noc(C2CCCN2Cc2cc3c(-c4cc(S(C)(=O)=O)ccc4Oc4ccc(F)cc4F)cn(C)c(=O)c3[nH]2)n1` (centres unmarked) [Example 131, 4-[2-(2,4-difluorophenoxy)-5-(methylsulfonyl)phenyl]-6-methyl-2-{[2-(3-methyl-1,2,4-oxadiazol-5-yl)pyrrolidin-1-yl]methyl}-1,6-dihydro-7H-pyrrolo[2,3-c]pyridin-7-one], the figures for the Ki at BRD4 (BDI_K57-E168) and on BRD4 (BDII_E352-M457) were 49.7 nM and 165 nM, respectively.

As a reminder, the Ki is the dissociation constant of the complex between target and ligand, obtained from inhibition or displacement. Low values mean tighter binding, high ones weaker binding.
